# Where “and” joins values, the source holds several entries; their conditions need not be identical. Equal entries are not always repeated.
# What was measured:
# [1] = Critical micelle concentration by tensiometer measurements in water; type: physicochemical; details: for CMC: in water, triplicate single values
# herpes-simplex virus 2 = details: ref xxi; cited from earlier work
# bacteriophage φ6 = details: ref xxi; cited from earlier work
# [2] = tested on: simian immunodeficiency virus (SIV); details: ref xxii; cited from earlier work
Compound,CMC [1],further results
"CCCCCCCCCCCCCCCC(=O)OC[C@H]1O[C@H](O[C@@H]2O[C@H](CO)[C@@H](O)[C@H](O)[C@H]2O)[C@@H](O)[C@@H](O)[C@@H]1O [Compound 6, β-D-Glucopyranosyl-(1→1)-6-O-palmitate-α-D-mannopyranoside]",10.5 µM and 12 µM,
"CCCCCCCCCCCCCCCC(=O)OC[C@H]1O[C@H](OC)[C@@H](O)[C@@H](O)[C@@H]1OC(=O)CCCCCCCCCCCCCCC [Compound 8, Methyl-4,6-di-O-palmitate-α-D-mannopyranoside]",,concentration above which precipitates rather than micelles form in water ([1]; interpretation of surface tension data): > 500 nM
1-O-lauryl-glycerol [GML],,activity against herpes-simplex virus 2 (herpes-simplex virus 2): low micromolar activity; activity against bacteriophage φ6 (bacteriophage φ6): low micromolar activity; prevention of SIV in rhesus macaque model [2]: prevent simian immunodeficiency virus (SIV)
"CCCCCCCCCCCCCCCC(=O)O[C@@H]1[C@H](O)[C@@H](O[C@@H]2O[C@H](CO)[C@H](O)[C@H](O)[C@H]2O)O[C@H](CO)[C@H]1O [Compound 4, β-D-Galactopyranosyl-(1→1)-3-O-palmitate-α-D-mannopyranoside]",12.5 µM,

# The next lines start with results.
CMC [1],Compound,further results
13.5 µM and 13.7 µM,"CCCCCCCCCCCCCCCC(=O)OC[C@H]1O[C@H](OC)[C@@H](O)[C@@H](O)[C@@H]1O [Compound 7, Methyl-6-O-palmitate-α-D-mannopyranoside]",
10.5 µM,"CCCCCCCCCCCCCCCC(=O)OC[C@H]1O[C@H](O[C@@H]2O[C@H](CO)[C@H](O)[C@H](O)[C@H]2O)[C@@H](O)[C@@H](O)[C@@H]1O [Compound 3, β-D-Galactopyranosyl-(1→1)-6-O-palmitate-α-D-mannopyranoside]",

# Source: publication PMC3380439 (Bioorganic & medicinal chemistry, 2011)
